Test system: participants with SSc-RP
Experiment: Average severity of weekly RP attacks (VAS 0-10 cm scale)
Format: in vivo, human
Description: The absolute change in average severity of weekly RP attacks (VAS 0-10 cm scale) from baseline to the end of each Dosing Period was and will be a secondary outcome variable. The sponsor-developed participant-informed diary will be used to record data. Average severity of weekly RP attacks is defined as the total severity scores of RP attacks divided by total number of RP attacks within the last 7 days of each dosing period. Total severity scores of RP attacks during the last 7 days of screening period divided by the total number of RP attacks will be used as baseline for the analysis of all periods. The variable will be calculated similar to frequency data as before.

[1] = Pooled Cilnidipine 10 mg and Cilnidipine 10 mg + Tadalafil 5 mg, n=1, by Baseline RCS, second subgroup, ITT Population - Part A
[2] = Pooled Cilnidipine 10 mg and Cilnidipine 10 mg + Tadalafil 5 mg, n=2, by Baseline RCS, first subgroup, ITT Population - Part A
[3] = Pooled Cilnidipine 10 mg and Cilnidipine 10 mg + Tadalafil 5 mg, n=3, Excluding Outliers, ITT Population - Part A
[4] = Pooled Cilnidipine 10 mg and Cilnidipine 10 mg + Tadalafil 5 mg, n=3, ITT Population - Part A
[5] = Pooled Cilnidipine 10 mg and Cilnidipine 10 mg + Tadalafil 5 mg, Excluding Outliers, ITT Population - Part A
[6] = Pooled Cilnidipine 10 mg and Cilnidipine 10 mg + Tadalafil 5 mg, Excluding Outliers, by Baseline RCS, first subgroup, ITT Population - Part A
[7] = Pooled Cilnidipine 10 mg and Cilnidipine 10 mg + Tadalafil 5 mg, Excluding Outliers, by Baseline RCS, second subgroup, ITT Population - Part A
[8] = Pooled Cilnidipine 10 mg and Cilnidipine 10 mg + Tadalafil 5 mg, ITT Population - Part A
[9] = Pooled Cilnidipine 10 mg and Cilnidipine 10 mg + Tadalafil 5 mg, first Baseline RCS subgroup block (not named), ITT Part A
[10] = Pooled Cilnidipine 10 mg and Cilnidipine 10 mg + Tadalafil 5 mg, first Baseline RCS subgroup block (not named), ITT Part A, score 0-10
[11] = Pooled Cilnidipine 10 mg and Cilnidipine 10 mg + Tadalafil 5 mg, second Baseline RCS subgroup block (not named), ITT Part A
[12] = Pooled Cilnidipine 10 mg and Cilnidipine 10 mg + Tadalafil 5 mg, second Baseline RCS subgroup block (not named), ITT Part A, score 0-10
[13] = Pooled Cilnidipine 20 mg and Cilnidipine 20 mg + Tadalafil 5 mg, n=1, by Baseline RCS, second subgroup, ITT Population - Part A
[14] = Pooled Cilnidipine 20 mg and Cilnidipine 20 mg + Tadalafil 5 mg, n=3, by Baseline RCS, first subgroup, ITT Population - Part A

COCCOC(=O)C1=C(C)NC(C)=C(C(=O)OC/C=C/c2ccccc2)C1c1cccc([N+](=O)[O-])c1 (stereo not shown) [Cilnidipine, cilnidipine]
Average Severity of Weekly RP Attacks (All Attacks), Percent Change from Baseline, Median (Pooled (over cilnidipine doses), ITT Population - Part A): −7.69% | Average Severity (0-10) of Weekly Symptomatic RP Attacks, Mean [1]: 5.23 | Average Severity (0-10) of Weekly Symptomatic RP Attacks, Median [1]: 5.23 | Average Severity of Weekly Symptomatic RP Attacks, Change from Baseline, Mean [1]: −1.13 | Average Severity of Weekly Symptomatic RP Attacks, Change from Baseline, Median [1]: −1.13 | Average Severity of Weekly Symptomatic RP Attacks, Percent Change from Baseline, Mean [1]: −17.81% | Average Severity of Weekly Symptomatic RP Attacks, Percent Change from Baseline, Median [1]: −17.81% | Average Severity (0-10) of Weekly Symptomatic RP Attacks, Mean [2]: 3.34 | Average Severity (0-10) of Weekly Symptomatic RP Attacks, Median [2]: 3.34 | Average Severity of Weekly Symptomatic RP Attacks, Change from Baseline, Mean [2]: −1.22 | Average Severity of Weekly Symptomatic RP Attacks, Change from Baseline, Median [2]: −1.22 | Average Severity of Weekly Symptomatic RP Attacks, Percent Change from Baseline, Mean [2]: −20.18% | Average Severity of Weekly Symptomatic RP Attacks, Percent Change from Baseline, Median [2]: −20.18% | Average Severity (0-10) of Weekly Symptomatic RP Attacks, Mean [3]: 3.97 | Average Severity (0-10) of Weekly Symptomatic RP Attacks, Median [3]: 3.77 | Average Severity of Weekly Symptomatic RP Attacks, Change from Baseline, Mean [3]: −1.19 | Average Severity of Weekly Symptomatic RP Attacks, Change from Baseline, Median [3]: −1.13 | Average Severity of Weekly Symptomatic RP Attacks, Percent Change from Baseline, Mean [3]: −19.39% | Average Severity of Weekly Symptomatic RP Attacks, Percent Change from Baseline, Median [3]: −17.81% | Average Severity (0-10) of Weekly Symptomatic RP Attacks, Mean [4]: 3.97 | Average Severity (0-10) of Weekly Symptomatic RP Attacks, Median [4]: 3.77 | Average Severity of Weekly Symptomatic RP Attacks, Change from Baseline, Mean [4]: −1.19 | Average Severity of Weekly Symptomatic RP Attacks, Change from Baseline, Median [4]: −1.13 | Average Severity of Weekly Symptomatic RP Attacks, Percent Change from Baseline, Mean [4]: −19.39% | Average Severity of Weekly Symptomatic RP Attacks, Percent Change from Baseline, Median [4]: −17.81% | Average Severity of Weekly RP Attacks (All Attacks), Change from Baseline, Mean [5]: −1.34 | Average Severity of Weekly RP Attacks (All Attacks), Change from Baseline, Median [5]: −1.32 | Average Severity of Weekly RP Attacks (All Attacks), Mean [5]: 3.62 | Average Severity of Weekly RP Attacks (All Attacks), Median [5]: 3.05 | Average Severity of Weekly RP Attacks (All Attacks), Percent Change from Baseline, Mean [5]: −23.02% | Average Severity of Weekly RP Attacks (All Attacks), Percent Change from Baseline, Median [5]: −21.20% | Average Severity of Weekly Symptomatic RP Attacks (Mean) [6]: 3.34 | Average Severity of Weekly Symptomatic RP Attacks (Median) [6]: 3.34 | Average Severity of Weekly Symptomatic RP Attacks, Change from Baseline, Mean [6]: −1.22 | Average Severity of Weekly Symptomatic RP Attacks, Change from Baseline, Median [6]: −1.22 | Average Severity of Weekly Symptomatic RP Attacks, Percent Change from Baseline, Mean [6]: −20.18% | Average Severity of Weekly Symptomatic RP Attacks, Percent Change from Baseline, Median [6]: −20.18% | Average Severity of Weekly Symptomatic RP Attacks (Mean) [7]: 5.23 | Average Severity of Weekly Symptomatic RP Attacks (Median) [7]: 5.23 | Average Severity of Weekly Symptomatic RP Attacks, Change from Baseline, Mean [7]: −1.13 | Average Severity of Weekly Symptomatic RP Attacks, Change from Baseline, Median [7]: −1.13 | Average Severity of Weekly Symptomatic RP Attacks, Percent Change from Baseline, Mean [7]: −17.81% | Average Severity of Weekly Symptomatic RP Attacks, Percent Change from Baseline, Median [7]: −17.81% | Average Severity of Weekly RP Attacks (All Attacks), Change from Baseline, Mean [8]: −1.34 | Average Severity of Weekly RP Attacks (All Attacks), Change from Baseline, Median [8]: −1.32 | Average Severity of Weekly RP Attacks (All Attacks), Mean [8]: 3.62 | Average Severity of Weekly RP Attacks (All Attacks), Median [8]: 3.05 | Average Severity of Weekly RP Attacks (All Attacks), Percent Change from Baseline, Mean [8]: −23.02% | Average Severity of Weekly RP Attacks (All Attacks), Percent Change from Baseline, Median [8]: −21.20% | Average Severity of Weekly RP Attacks (All Attacks), Percent Change from Baseline, Mean [9]: −23.94% | Average Severity of Weekly RP Attacks (All Attacks), Percent Change from Baseline, Median [9]: −23.94% | Average Severity of Weekly RP Attacks (All Attacks), Change from Baseline, Mean [10]: −1.35 | Average Severity of Weekly RP Attacks (All Attacks), Change from Baseline, Median [10]: −1.35 | Average Severity of Weekly RP Attacks (All Attacks), Mean [10]: 2.97 | Average Severity of Weekly RP Attacks (All Attacks), Median [10]: 2.97 | Average Severity of Weekly RP Attacks (All Attacks), Percent Change from Baseline, Mean [11]: −21.20% | Average Severity of Weekly RP Attacks (All Attacks), Percent Change from Baseline, Median [11]: −21.20% | Average Severity of Weekly RP Attacks (All Attacks), Change from Baseline, Mean [12]: −1.32 | Average Severity of Weekly RP Attacks (All Attacks), Change from Baseline, Median [12]: −1.32 | Average Severity of Weekly RP Attacks (All Attacks), Mean [12]: 4.90 | Average Severity of Weekly RP Attacks (All Attacks), Median [12]: 4.90 | Average Severity (0-10) of Weekly Symptomatic RP Attacks, Mean [13]: 5.06 | Average Severity (0-10) of Weekly Symptomatic RP Attacks, Median [13]: 5.06 | Average Severity of Weekly Symptomatic RP Attacks, Change from Baseline, Mean [13]: −1.79 | Average Severity of Weekly Symptomatic RP Attacks, Change from Baseline, Median [13]: −1.79 | Average Severity of Weekly Symptomatic RP Attacks, Percent Change from Baseline, Mean [13]: −26.14% | Average Severity of Weekly Symptomatic RP Attacks, Percent Change from Baseline, Median [13]: −26.14% | Average Severity (0-10) of Weekly Symptomatic RP Attacks, Mean [14]: 2.85 | Average Severity (0-10) of Weekly Symptomatic RP Attacks, Median [14]: 2.40 | Average Severity of Weekly Symptomatic RP Attacks, Change from Baseline, Mean [14]: −1.06 | Average Severity of Weekly Symptomatic RP Attacks, Change from Baseline, Median [14]: −0.33 | Average Severity of Weekly Symptomatic RP Attacks, Percent Change from Baseline, Mean [14]: −24.28% | Average Severity of Weekly Symptomatic RP Attacks, Percent Change from Baseline, Median [14]: −12.02%

Source: US20240358693A1, “METHODS OF TREATING PAIN” (Aisa Pharma, Inc., priority 2023, published 2024)
